Laboratory results: patent USRE38257E1, “Piperdine derivatives and hypotensives containing the same” (Ajinomoto Co., Inc., priority 1988, dated 2003)

Test system: male spontaneously hypertensive rats
Assay: Decrease in systolic blood pressure in spontaneously hypertensive rats after intravenous bolus injection, indirect (tail-cuff) method
Type: in vivo, rat
Settings: for Decrease in systolic blood pressure (mmHg) time after administration (hour) 0.5: 0.5 hour after administration; for Decrease in systolic blood pressure (mmHg) time after administration (hour) 4: 4 hours after administration
Protocol: As test animals, four male spontaneously hypertensive rats (weight 400 to 440 g) that were sufficiently adapted for feeding and in which hypertension was confirmed were used.
Physiological saline aqueous solution containing 2.5% Nicolle and 2.5% ethanol of sample was intravenously administered by bolus injection at a dose of 1 ml per 1 kg of body weight. Systolic blood pressure after administration was measured by the indirect (tail-cuff) method.

| Structure (SMILES) | Decrease in systolic blood pressure (mmHg) time after administration (hour) 0.5 (dose 10 mg/kg i.v. bolus) | Decrease in systolic blood pressure (mmHg) time after administration (hour) 4 (dose 10 mg/kg i.v. bolus) | Decrease in systolic blood pressure (mmHg) time after administration (hour) 0.5 (dose 3 mg/kg i.v. bolus) | Decrease in systolic blood pressure (mmHg) time after administration (hour) 4 (dose 3 mg/kg i.v. bolus) | also measured |
| --- | --- | --- | --- | --- | --- |
| COc1cc(C=CCN2CCC(=C3c4ccccc4C=Cc4ccccc43)CC2)cc(OC)c1OC.Cl [Example 320, 4-(5H-Dibenzo[a,d]cyclohepten-5-ylidene)-1-(3,4,5-trimethoxycinnamyl)piperdine hydrochloride] | −147 mmHg | −113 mmHg | – | – | – |
| CC(=O)N1CCC(C=CCCCN2CCC(=C3c4ccccc4C=Cc4ccccc43)CC2)CC1.Cl.Cl [Example 321, 1-(N-Acetyl-4-piperidinyl)-5-(4-(5H-dibenzo[a,d]cyclohepten-5-ylidene)-1-piperidinyl)-1-pentene dihydrochloride] | −60 mmHg | −4 mmHg | – | – | – |
| COC(=O)c1c(C)nc(CCCCN2CCC(=C3c4ccccc4C=Cc4ccccc43)CC2)c(C(=O)OC)c1C.Cl [Example 323, 2-(4-(4-(5H-Dibenzo[a,d]cyclohepten-5-ylidene)-1-piperidinyl)-1-butyl)-3,4-5,6-tetramethylpyridine-3,5-dicarboxylate hydrochloride] | −117 mmHg | −11 mmHg | – | – | – |
| COC1CCC(CCCN2CCC(=C3c4ccccc4C=Cc4ccccc43)CC2)CC1.Cl (stereo not shown) [Example 324, 1-(1-(4-Methoxy)cyclohecyl)-3-(4-(5H-Dibenzo[a,d]cyclohepten-5-ylidene)-1-piperidinyl)propane hydrochloride] | −137 mmHg | −46 mmHg | – | – | – |
| Cl.O=[N+]([O-])c1ccc(C=CCN2CCC(=C3c4ccccc4C=Cc4ccccc43)CC2)cc1 [Example 325, (5H-Dibenzo[a,d]cyclohepten-5-ylidene)-1-(4-nitrocinnamyl)piperidine hydrochloride] | −115 mmHg | −100 mmHg | – | – | – |
| Cl.Cl.Nc1ccc(C=CCN2CCC(=C3c4ccccc4C=Cc4ccccc43)CC2)cc1 [Example 326, 1-(4-Aminocinnamyl)-4-(5H-Dibenzo[a,d]cyclohepten-5-ylidene)-1-piperidine dihydrochloride] | – | – | – | – | Decrease in systolic blood pressure (mmHg) time after administration (hour) 0.5 (dose 1 mg/kg i.v. bolus): −125 mmHg; Decrease in systolic blood pressure (mmHg) time after administration (hour) 4 (dose 1 mg/kg i.v. bolus): −102 mmHg |
| COc1ccc(CCCN2CCC(=C3c4ccccc4C=Cc4ccccc43)CC2)c(OC)c1.Cl.Cl [Example 328, 3-(4-(5H-Dibenzo[a,d]cyclohepten-5-ylidene)-1-piperidinyl)-1-(2,4-dimethoxyphenyl)propane dihydrochloride] | −125 mmHg | −87 mmHg | – | – | – |
| Cl.O=[N+]([O-])c1cccc2c1CC(CN1CCC(=C3c4ccccc4C=Cc4ccccc43)CC1)C2 (stereo not shown) [Example 329, 2-(4-(5H-Dibenzo[a,d]cyclohepten-5-ylidene)-1-piperidinyl)methyl-4′-nitroindan hydrochloride] | −34 mmHg | −7 mmHg | – | – | – |
| Cl.Nc1cccc2c1CC(CN1CCC(=C3c4ccccc4C=Cc4ccccc43)CC1)C2 (stereo not shown) [Example 330, 4′-Amino-2-(4-(5H-Dibenzo[a,d]cyclohepten-5-ylidene)-1-piperidinyl)methylindan hydrochloride] | −93 mmHg | −25 mmHg | – | – | – |
| CC(=O)Nc1cccc2c1CC(CN1CCC(=C3c4ccccc4C=Cc4ccccc43)CC1)C2.Cl (stereo not shown) [Example 331, 4′Acetylamino-2(4-(5H-Dibenzo[a,d]cyclohepten-5-ylidene)-1-Piperidinyl)methylindan hydrochloride] | −62 mmHg | −14 mmHg | – | – | – |
| Cl.O=[N+]([O-])c1ccc2c(c1)CC(CN1CCC(=C3c4ccccc4C=Cc4ccccc43)CC1)C2 (stereo not shown) [Example 332, 2-(4-(5H-Dibenzo[a,d]cyclohepten-5-ylidene)-1-piperidinyl)methyl-5′-nitroindan hydrochloride] | −111 mmHg | −57 mmHg | – | – | – |
| CC(=O)Nc1ccc2c(c1)CC(CN1CCC(=C3c4ccccc4C=Cc4ccccc43)CC1)C2.Cl (stereo not shown) [Example 334, 5′-acetylamino-2-(4-(5H-Dibenzo[a,d]cyclohepten-5-ylidene)-1-piperidinyl)methylindan hydrochloride] | – | – | −130 mmHg | −93 mmHg | – |
| COc1ccc(OC)c(C=CCN2CCC(=C3c4ccccc4C=Cc4ccccc43)CC2)c1.Cl [Example 343, 4-(5H-Dibenzo[a,d]cyclohepten-5-ylidene)-1-(2,5-dimethoxycinnamyl)piperidine hydrochloride] | – | – | −83 mmHg | −45 mmHg | – |
| COc1cccc(C=CCN2CCC(=C3c4ccccc4C=Cc4ccccc43)CC2)c1OC.Cl [Example 344, 4-(5H-Dibenzo[a,d]cyclohepten-5-ylidene)-1-(2,3-dimethoxycinnamyl)piperidine hydrochloride] | – | – | – | – | Decrease in systolic blood pressure (mmHg) time after administration (hour) 0.5 (dose 1 mg/kg i.v. bolus): −123 mmHg; Decrease in systolic blood pressure (mmHg) time after administration (hour) 4 (dose 1 mg/kg i.v. bolus): −35 mmHg |
| COc1cc(C=CCN2CCC(=C3c4ccccc4C=Cc4ccccc43)CC2)cc(OC)c1.Cl [Example 345, 4-(5H-Dibenzo[a,d]cyclohepten-5-ylidene)-1-(3,5-dimethoxycinnamyl)piperidine hydrochloride] | – | – | −120 mmHg | −95 mmHg | – |
| Cl.N#Cc1ccc(C=CCN2CCC(=C3c4ccccc4C=Cc4ccccc43)CC2)cc1 [Example 346, 1-(4-Cyanocinnamyl)-4-(5H-Dibenzo[a,d]cyclohepten-5-ylidene)-1-piperidine hydrochloride] | – | – | −142 mmHg | −121 mmHg | – |
| COc1ccccc1C=CCN1CCC(=C2c3ccccc3C=Cc3ccccc32)CC1.Cl [Example 347, 4-(5H-Dibenzo[a,d]cyclohepten-5-ylidene)-1-(2-methoxycinnamyl)piperidine hydrochloride] | – | – | −116 mmHg | −53 mmHg | – |
| COc1cccc(C=CCN2CCC(=C3c4ccccc4C=Cc4ccccc43)CC2)c1.Cl [Example 348, 4-(5H-Dibenzo[a,d]cyclohepten-5-ylidene)-1-(3-methoxycinnamyl)piperidine hydrochloride] | – | – | −105 mmHg | −12 mmHg | – |
| C1=Cc2ccccc2C(=C2CCNCC2)c2ccccc21.Cl [Example 349, 4-(5H-Dibenzo[a,d]cyclohepten-5-ylidene)-1-piperidine hydrochloride] | – | – | – | – | Decrease in systolic blood pressure (mmHg) time after administration (hour) 0.5 (dose 1 mg/kg i.v. bolus): −48 mmHg; Decrease in systolic blood pressure (mmHg) time after administration (hour) 4 (dose 1 mg/kg i.v. bolus): −43 mmHg |
| Cl.O=[N+]([O-])c1ccc(C=CCN2CCC(=C3c4ccccc4CCc4ccccc43)CC2)cc1 [Example 350, 4-(10,11-Dihydro-5H-dibenzo[a,d]cyclohepten-5-ylidene)-1-(4-nitrocinnamyl)piperidine hydrochloride] | −136 mmHg | −85 mmHg | – | – | – |
| Cl.Cl.Nc1ccc(C=CCN2CCC(=C3c4ccccc4CCc4ccccc43)CC2)cc1 [Example 351, 1-(4-Aminocinnamyl)-4-(10,11-dihydro-5H-Dibenzo[a,d]cyclohepten-5-ylidene)-1-piperidine dihydrochloride] | – | – | −70 mmHg | −21 mmHg | – |
| CC(=O)Nc1ccc(C=CCN2CCC(=C3c4ccccc4CCc4ccccc43)CC2)cc1.Cl.Cl [Example 352, 1-(4-Acetylaminocinnamyl)-4-(10,11 dihydro-5H-Dibenzo[a,d]cyclohepten-5-ylidene)piperidine dihydrochloride] | – | – | −93 mmHg | −60 mmHg | – |
| Cl.Fc1ccc(C=CCN2CCC(=C3c4ccccc4C=Cc4ccccc43)CC2)cc1 [Example 353] | −147 mmHg | −138 mmHg | – | – | – |
| Cl.O=[N+]([O-])c1cccc2c1CC(CCN1CCC(=C3c4ccccc4C=Cc4ccccc43)CC1)C2 (stereo not shown) [Example 354, 2-(2-(4-(5H-Dibenzo[a,d]cyclohepten-5-ylidene)-1-piperidinyl)-1-ethyl)-4′-nitroindan hydrochloride] | – | – | −89 mmHg | −8 mmHg | – |
| Cl.Oc1ccc(C=CCN2CCC(=C3c4ccccc4C=Cc4ccccc43)CC2)cc1 [Example 363, 4-(5H-Dibenzo[a,d]cyclohepten-5-ylidene)-1-(4-hydroxycinnamyl)piperidine hydrochloride] | – | – | −120 mmHg | – | – |
